Laboratory results: paper PMC4678576, “Optimisation of a triazolopyridine based histone demethylase inhibitor yields a potent and selective KDM2A (FBXL11) inhibitor” (MedChemComm, 2014)

Assay: Parallel artificial membrane permeation assay (PAMPA)
Assay type: in vitro ADME
Conditions: for Papp: PAMPA, range over pH 7.4, 6.2, 5.0, read-out: membrane permeability (PAMPA), range over the pH values tested

Papp	PAMPA Pe pH 5.0	PAMPA Pe pH 6.2	PAMPA Pe pH 7.4	SMILES
45 to 56 ×10⁻⁶ cm/s	56 10^−6 cm s^−1	45 10^−6 cm s^−1	52 10^−6 cm s^−1	COC(=O)c1ccnc(-c2cn([C@@H]3CCCN(C(=O)c4ccccc4)C3)nn2)c1 [Compound 37]
0.41 to 1.9 ×10⁻⁶ cm/s	1.9 10^−6 cm s^−1	0.41 10^−6 cm s^−1	0.69 10^−6 cm s^−1	O=C(O)c1ccnc(-c2cn([C@@H]3CCCN(C(=O)c4ccccc4)C3)nn2)c1 [Compound 35]
